Measured values as given in PubChem BioAssay (NCI).
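All cell lines were grown in 96-well plates and treated with compound for 48 hours. Abbreviation: GI50, concentration required for 50% inhibition of growth. TGI is the concentration that stops growth completely.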

Key:
Assay in all cases: DTP human tumour cell line panel, 48 h
SNB-75 CNS = tested on: SNB-75 CNS
A549 NSCLC = tested on: A549 NSCLC
SR leukemia = tested on: SR leukemia
HCC-2998 colon = tested on: HCC-2998 colon
HCT-15 colon = tested on: HCT-15 colon
MDA-MB-231 breast = tested on: MDA-MB-231 breast
SK-MEL-28 melanoma = tested on: SK-MEL-28 melanoma
SF-268 CNS = tested on: SF-268 CNS
BT-549 breast = tested on: BT-549 breast
COLO 205 colon = tested on: COLO 205 colon
MCF7 breast = tested on: MCF7 breast
NCI-H460 lung = tested on: NCI-H460 lung
NCI-H226 lung = tested on: NCI-H226 lung
HOP-62 NSCLC = tested on: HOP-62 NSCLC
MDA-MB-435 = tested on: MDA-MB-435
SK-MEL-2 melanoma = tested on: SK-MEL-2 melanoma
SW-620 colon = tested on: SW-620 colon
CAKI-1 renal = tested on: CAKI-1 renal
OVCAR-3 ovarian = tested on: OVCAR-3 ovarian
MOLT-4 leukemia = tested on: MOLT-4 leukemia
CCRF-CEM leukemia = tested on: CCRF-CEM leukemia
OVCAR-4 ovarian = tested on: OVCAR-4 ovarian
ACHN renal = tested on: ACHN renal
TK-10 renal = tested on: TK-10 renal
IGROV1 ovarian = tested on: IGROV1 ovarian
SNB-19 CNS = tested on: SNB-19 CNS
EKVX NSCLC = tested on: EKVX NSCLC
SF-539 CNS = tested on: SF-539 CNS
LOX IMVI melanoma = tested on: LOX IMVI melanoma
A498 renal = tested on: A498 renal
HL-60(TB) leukemia = tested on: HL-60(TB) leukemia
SF-295 CNS = tested on: SF-295 CNS
UACC-62 melanoma = tested on: UACC-62 melanoma
HOP-92 NSCLC = tested on: HOP-92 NSCLC
DU-145 prostate = tested on: DU-145 prostate
OVCAR-5 ovarian = tested on: OVCAR-5 ovarian
M14 melanoma = tested on: M14 melanoma
NCI-H23 lung = tested on: NCI-H23 lung
UACC-257 melanoma = tested on: UACC-257 melanoma
UO-31 renal = tested on: UO-31 renal
NCI-H522 lung = tested on: NCI-H522 lung
K-562 leukemia = tested on: K-562 leukemia
KM12 colon = tested on: KM12 colon
HT29 colon = tested on: HT29 colon
SN12C renal = tested on: SN12C renal
HS 578T breast = tested on: HS 578T breast
NCI/ADR-RES ovarian = tested on: NCI/ADR-RES ovarian
OVCAR-8 ovarian = tested on: OVCAR-8 ovarian
786-0 renal = tested on: 786-0 renal
U251 CNS = tested on: U251 CNS
T-47D breast = tested on: T-47D breast
SK-MEL-5 melanoma = tested on: SK-MEL-5 melanoma
HCT-116 colon = tested on: HCT-116 colon
PC-3 prostate = tested on: PC-3 prostate
MALME-3M melanoma = tested on: MALME-3M melanoma
RXF 393 renal = tested on: RXF 393 renal
SK-OV-3 ovarian = tested on: SK-OV-3 ovarian
RPMI-8226 leukemia = tested on: RPMI-8226 leukemia

With `COc1cc(N2CCN(C(C)C)CC2)ccc1Nc1nc(Nc2ccc(F)cc2C(=O)NCC(O)CO)c2cc[nH]c2n1` (stereo unspecified) the GI50 (SNB-75 CNS) was 13.3 µM, the TGI (SNB-75 CNS) was greater than 25 µM and the GI50 (A549 NSCLC) was 5.76 µM. For the same compound, the TGI (A549 NSCLC) was greater than 25 µM, the GI50 (SR leukemia) was 1.13 µM and the TGI (SR leukemia) was greater than 14 µM. It also gave a GI50 (HCC-2998 colon) of 7.21 µM, a TGI (HCC-2998 colon) greater than 25 µM and a GI50 (HCT-15 colon) greater than 25 µM. The TGI (HCT-15 colon) was greater than 25 µM, the GI50 (MDA-MB-231 breast) was 13.6 µM and the TGI (MDA-MB-231 breast) was greater than 25 µM. The GI50 (SK-MEL-28 melanoma) was greater than 25 µM, the TGI (SK-MEL-28 melanoma) was greater than 25 µM and the GI50 (SF-268 CNS) was 6.89 µM. It also gave a TGI (SF-268 CNS) greater than 25 µM, a GI50 (BT-549 breast) of 8.23 µM and a TGI (BT-549 breast) greater than 25 µM. It also gave a GI50 (COLO 205 colon) of 0.526 µM, a TGI (COLO 205 colon) greater than 9.9 µM and a GI50 (MCF7 breast) of 0.276 µM. For the same compound, the TGI (MCF7 breast) was greater than 25 µM, the GI50 (NCI-H460 lung) was 6.05 µM and the TGI (NCI-H460 lung) was 19.4 µM. It also gave a GI50 (NCI-H226 lung) of 5.04 µM, a TGI (NCI-H226 lung) of 19.9 µM and a GI50 (HOP-62 NSCLC) of 4.09 µM. For the same compound, the TGI (HOP-62 NSCLC) was greater than 25 µM, the GI50 (MDA-MB-435) was 4.99 µM and the TGI (MDA-MB-435) was greater than 25 µM. For the same compound, the GI50 (SK-MEL-2 melanoma) was 4.18 µM, the TGI (SK-MEL-2 melanoma) was greater than 23.6 µM and the GI50 (SW-620 colon) was 2.05 µM. For the same compound, the TGI (SW-620 colon) was greater than 25 µM, the GI50 (CAKI-1 renal) was greater than 25 µM and the TGI (CAKI-1 renal) was greater than 25 µM. For the same compound, the GI50 (OVCAR-3 ovarian) was greater than 25 µM, the TGI (OVCAR-3 ovarian) was greater than 25 µM and the GI50 (MOLT-4 leukemia) was 8.68 µM. The TGI (MOLT-4 leukemia) was greater than 25 µM, the GI50 (CCRF-CEM leukemia) was 2.65 µM and the TGI (CCRF-CEM leukemia) was greater than 25 µM. For the same compound, the GI50 (OVCAR-4 ovarian) was greater than 25 µM, the TGI (OVCAR-4 ovarian) was greater than 25 µM and the GI50 (ACHN renal) was greater than 25 µM. The TGI (ACHN renal) was greater than 25 µM, the GI50 (TK-10 renal) was 11.9 µM and the TGI (TK-10 renal) was greater than 25 µM. It also gave a GI50 (IGROV1 ovarian) of 11.1 µM, a TGI (IGROV1 ovarian) greater than 25 µM and a GI50 (SNB-19 CNS) of 7.41 µM. For the same compound, the TGI (SNB-19 CNS) was greater than 25 µM, the GI50 (EKVX NSCLC) was greater than 13.8 µM and the TGI (EKVX NSCLC) was greater than 25 µM. The GI50 (SF-539 CNS) was 5.13 µM, the TGI (SF-539 CNS) was greater than 25 µM and the GI50 (LOX IMVI melanoma) was 1.64 µM. It also gave a TGI (LOX IMVI melanoma) greater than 25 µM, a GI50 (A498 renal) of 2.5 µM and a TGI (A498 renal) greater than 25 µM. The GI50 (HL-60(TB) leukemia) was 1.08 µM, the TGI (HL-60(TB) leukemia) was 13.6 µM and the GI50 (SF-295 CNS) was 11.4 µM. It also gave a TGI (SF-295 CNS) greater than 25 µM, a GI50 (UACC-62 melanoma) of 9.87 µM and a TGI (UACC-62 melanoma) greater than 25 µM. It also gave a GI50 (HOP-92 NSCLC) of 0.182 µM, a TGI (HOP-92 NSCLC) of 2.09 µM and a GI50 (DU-145 prostate) of 3.73 µM. It also gave a TGI (DU-145 prostate) greater than 25 µM, a GI50 (OVCAR-5 ovarian) of 4.28 µM and a TGI (OVCAR-5 ovarian) greater than 25 µM. It also gave a GI50 (M14 melanoma) of 12 µM, a TGI (M14 melanoma) greater than 25 µM and a GI50 (NCI-H23 lung) of 4.22 µM. It also gave a TGI (NCI-H23 lung) greater than 23.3 µM, a GI50 (UACC-257 melanoma) of 2.87 µM and a TGI (UACC-257 melanoma) greater than 25 µM. It also gave a GI50 (UO-31 renal) greater than 25 µM, a TGI (UO-31 renal) greater than 25 µM and a GI50 (NCI-H522 lung) of 4.79 µM. For the same compound, the TGI (NCI-H522 lung) was greater than 25 µM, the GI50 (K-562 leukemia) was greater than 19.9 µM and the TGI (K-562 leukemia) was greater than 25 µM. For the same compound, the GI50 (KM12 colon) was 10.6 µM, the TGI (KM12 colon) was greater than 25 µM and the GI50 (HT29 colon) was 1.25 µM. The TGI (HT29 colon) was greater than 25 µM, the GI50 (SN12C renal) was 7.62 µM and the TGI (SN12C renal) was greater than 25 µM. For the same compound, the GI50 (HS 578T breast) was 6.9 µM, the TGI (HS 578T breast) was greater than 25 µM and the GI50 (NCI/ADR-RES ovarian) was greater than 25 µM. It also gave a TGI (NCI/ADR-RES ovarian) greater than 25 µM, a GI50 (OVCAR-8 ovarian) of 16.3 µM and a TGI (OVCAR-8 ovarian) greater than 25 µM. For the same compound, the GI50 (786-0 renal) was greater than 23.3 µM, the TGI (786-0 renal) was greater than 25 µM and the GI50 (U251 CNS) was 5.22 µM. It also gave a TGI (U251 CNS) greater than 25 µM, a GI50 (T-47D breast) of 7.52 µM and a TGI (T-47D breast) greater than 25 µM. It also gave a GI50 (SK-MEL-5 melanoma) of 11.4 µM, a TGI (SK-MEL-5 melanoma) greater than 25 µM and a GI50 (HCT-116 colon) of 1.69 µM. The TGI (HCT-116 colon) was greater than 25 µM, the GI50 (PC-3 prostate) was greater than 25 µM and the TGI (PC-3 prostate) was greater than 25 µM. It also gave a GI50 (MALME-3M melanoma) of 4.65 µM, a TGI (MALME-3M melanoma) greater than 25 µM and a GI50 (RXF 393 renal) of 11.4 µM. The TGI (RXF 393 renal) was greater than 25 µM, the GI50 (SK-OV-3 ovarian) was 6.85 µM and the TGI (SK-OV-3 ovarian) was greater than 25 µM. The GI50 (RPMI-8226 leukemia) was 15 µM and the TGI (RPMI-8226 leukemia) was greater than 25 µM.
